Data on 7 compounds can be found in US20070072954A1, “Novel tetraoxaspiroalkanes and methods of use with organosilicon monomers in polyerizable compositions” (Curators of the University of Missouri, priority 2005, published 2007).

The structures appear in SMILES notation. Marks after values point to notes of the source that are not given here.

The nature of data set [1]: Oxirane ring-opening (oxirane conversion) via FTIR. It is filed as physicochemical. To be noted: thin film, 10 min irradiation. The method, then:
In this example, the oxirane ring-opening of monomers 1 (DEBAOM-1,5,7,11-TOSU) or 6 (DEBTMSPOM-1,5,7,11-TOSU) was investigated using FTIR. All FTIR spectra were acquired using a Perkin-Elmer BX II FTIR spectrophotometer. The identification of the location of the oxirane absorption band in the IR spectrum of Siloranes was achieved by methanolysis. A sample was dissolved in CH2Cl2 and exposed to CH30H in the presence of a catalytic amount of zinc tetrafluoroborate hydrate overnight. The mixture was evaporated onto a salt plate. An FTIR spectrum was acquired and compared to pre-exposure spectrum. There was a significant decrease in the oxirane absorption region at 882-886 cm^−1. This band was selected as the absorption to monitor for following the oxirane ring-opening reaction.
Analytical samples contained siloranes I, II, or SIL-MIX with and without 50 mol % of monomer 1 (DEBAOM-1,5,7,11-TOSU) or 6 (DEBTMSPOM-1,5,7,11-TOSU). A thin film was brushed onto a salt plate. Irradiation (10 minutes at 23 to 25° C. and R. H.=40-45%) was provided by a 3M XL2500 curing light positioned 1-cm above the sample surface. The light intensity was measured at 360 mW/cm^2 on the sample surface. The oxirane band absorption and an internal reference band absorption were assessed before and after irradiation. Oxirane conversion (alpha) was calculated according to equation (1) by Pan et al., Polym Int 2000, 49, 74. [formula] where subscripts 0 and t represent pre-irradiation and post-irradiation respectively.

The nature of data set [2]: Mechanical properties measurement (3-point bend tests). To be noted: for Flexural elastic modulus / Work of Fracture / Flexural ultimate strength: 24-h, mean(std. dev.), n=6, BT and SIL-MIX alone; for Flexural ultimate strength: the values are: Ultimate (flexural) strength. The data set is classed as physicochemical. The protocol:
In this example, the elastic modulus, ultimate strength, and work of fracture were determined for the monomers of the present invention. […] The resin was injected into the mold and cured by irradiation (500 mW/cm^2) followed by storage in the dark for 4 hours and 24 hours before mechanical tests were conducted. Three point bending tests were conducted using an electromagnetic mechanical testing machine (Enduratec Model 3200) with a 20-mm span and at a crosshead displacement rate of 0.5mm/ min at room temperature (25° C.). Load-displacement data were collected at 100 Hz. […] Flexural ultimate strength was determined from the peak loads and work of fracture was determined from the area under the stress-strain curve.

Data set [3] can be described thus: Photoreactivity assessment (photo DSC enthalpy of polymerization). It is filed as physicochemical. The settings on record: for ΔHexp / ΔHcalc / Net Enthalpy ΔH: 3 wt % PI; for ΔH (experimental)/ΔH (calculated): calculated for an inert diluent; for Exotherm Peak Maximum / Net Enthalpy ΔH: TOSU monomers 20 mol % in SIL-MIX, SIL-MIX alone; for Net Enthalpy ΔH: experimental, 1 wt % CQ, 0.1 wt % ED, 400-500 nm, 10 min, 25° C., n=1. The text has this: In this example, the photoreactivity of various combinations of SIL-MIX alone or SIL-MIX with 3,9-diethyl-3,9-bis(allyloxymethyl)-1,5,7,11-tetraoxaspiro[5.5]undecane (DEBAOM-1,5,7,11-TOSU) 1; 3,9-bis(3-trimethylsilylpropyl)-1,5,7,11-tetraoxaspiro[5.5]undecane (BTMSP-1,5,7,11-TOSU) 2; 3,9-bis(allyloxymethyl)-2,4,8,10-tetraoxaspiro[5.5]undecane (BAOM-2,4,8,10-TOSU) 3; 3,9-bis(2-trimethylsilylethyl)-[…] (BTMSE-2,4,8,10-TOSU) 4; 3,3-diethyl-11,12-epoxy-1,5,7,16-tetraoxadispiro[5.2.5.2]hexadecane (DECHE-1,5,7,11-TOSU) 5; and 3,9-diethyl-3,9-bis(3-trimethylsilylpropyloxymethyl)-1,5,7,11-tetraoxaspiro[5.5]-undecane (DEBTMSPOM-1,5,7,11-TOSU) 6 was investigated. The photoreactivity assessments (n=1) were made using an EXFO Novacure light curing unit interfaced with a Perkin-Elmer Diamond DSC. The experimental conditions were as follows: 25° C.; N2 atmosphere; 400-500 nm light; 3 mm quartz light guides; output: 500 mW/cm measured 15 mm from sample surface. The sample weights were 15-18 mg. Standard A1 pans were used. An empty pan was placed in the reference position. Irradiation time was for 10 minutes following a 1 minute equilibration. After the initial run, the sample was re-irradiated for an additional 10 minutes. This second curve was subtracted from the initial exotherm curve to zero out artifacts due to beginning and ending of irradiation, and to compensate for the heat capacity differences between the sample pan and empty reference pan. Integrations were from time t=1.1 (lamp shutter opened) min to 11.1 min (lamp shutter closed).
In this example, reaction mixtures containing 0 or 20 mol % of TOSU monomers 1, 2, 3, 4, and 5 in SIL-MIX were formulated with 4.1 wt % photoinitiator system (3 wt % PI; 1 wt % CQ; 0.1 wt % ED). Formulated mixtures were heated for 5 minutes on an oil bath at about 60° C. and stirred magnetically to aid dissolution of the photoinitiator system and inventive monomer. Formulations were prepared and stored away from ambient light. Mixtures were tested for photoreactivity the same day as prepared.
The effect of doubling the photoinitiator (PI) content from 3 wt % to 6 wt % was also determined for selected mixtures. As in Example 7(a) above, reaction mixtures (about 2 g) were formulated with 4.1 wt % photoinitiator system (3 wt % PI; 1 wt % CQ; 0.1 wt % ED) except where noted. Formulated mixtures were heated for 5 minutes on an oil bath @ 60° C. and stirred magnetically to dissolve the photoinitiator system and 6 (DEBTMSPOM-1,5,7,11-TOSU) when included. Formulations were prepared and stored away from ambient light and tested the same day as prepared.

The nature of data set [4]: Photopolymerization stress measurement (tensilometer). It is filed as physicochemical. The settings on record: for Polymerization Stress: mean(std. dev.), n=3, TOSU monomers 20 mol % in SIL-MIX, BT and SIL-MIX alone. The protocol:
In this example, the photopolymerization stress of the monomers of the present invention was investigated. Stress generated during photopolymerization was measured (n=3) using an electromagnetic mechanical testing machine (Enduratec Model 3200, Bose Corp., Minnetonka, Minn.) adapted to be a tensilometer. See Feilzer et al., Dent. Mater. […] Briefly, two identical glass rods, 5 mm in diameter, were placed opposing one another and separated by 1 mm (C-factor=2.5). A displacement transducer (LVDT, Enduratec, 0.1 μm resolution, range ±1 mm) was mounted on one glass rod and was touching a plate attached to the opposing glass rod. The distance between the mounts on the opposing glass rods was about 9 mm (including the 1 mm separation between the rods). Samples placed between the glass rods were cured by irradiation (500 mW/cm^2), while under LVDT displacement control. Load-displacement data were collected at 200 Hz for 30 mins. […] From the load-displacement data, peak loads were obtained and normalized by the original area to obtain the polymerization stresses.

[5] abbreviates: 20 mol % in SIL-MIX, Dunnett's test p=0.05.
Setting [6] is: TOSU monomers 20 mol % in SIL-MIX.

Regarding `C=CCOCC1(CC)COC2(OC1)OCC(CC)(COCC=C)CO2` (centres unmarked) [Monomer 1, 3,9-diethyl-3,9-bis(allyloxymethyl)-1,5,7,11-tetraoxaspiro[5.5]undecane], the “Oxirane Conversion” value in data set [1] (comonomer 50 mol % in PH-SIL (I)) was found to be 36%. In data set [1] (comonomer 50 mol % in TET-SIL (II)), the “Oxirane Conversion” value came to 27%. In addition, in data set [2] (setting [5]), the “elastic modulus values compared with the methacrylate control (BT)” value is reported as “significantly lower” and the “ultimate strength values compared with the methacrylate control (BT)” value was “significantly lower”. Also, in data set [2] (setting [6]), the Flexural elastic modulus came out at 2.2 GPa, the “Work of Fracture” value was 5.82 (2.02) kJ/m^2 and the Flexural ultimate strength was determined as 84.6 MPa. For the same compound, in data set [3] (20 mol % in SIL-MIX), the ΔHexp is -124 J/g and the “ΔH (experimental)/ΔH (calculated)” value is reported as 80%. Also, in data set [3] (50 mol % in PH-SIL), the ΔHexp is -78 J/g. For the same compound, the ΔHcalc in data set [3] (calculated for inert diluent instead of TOSU at 20 mol %) is -154 J/g. The ΔHcalc in data set [3] (calculated for inert diluent instead of TOSU at 50 mol % in PH-SIL) was -104 J/g. In data set [3] (20% in SIL-MIX), the “experimental ΔH as % of the calculated ΔH” value was 81%. Also, the “experimental value as % of the calculated value (ΔH)” value in data set [3] (50% in Ph-Sil) is reported as 75%. In data set [3], the “Exotherm Peak Maximum” value worked out at 14 s and the “Net Enthalpy ΔH” value is −116^b J/g. Also, the “Polymerization Stress” value in data set [4] is reported as 0.17 (0.06)* N/mm^2.
`C[Si](C)(C)CCCC1COC2(OC1)OCC(CCC[Si](C)(C)C)CO2` (centres unmarked) [Monomer 2, 3,9-bis(3-trimethylsilylpropyl)-1,5,7,11-tetraoxaspiro[5.5]undecane]: in data set [2] (setting [5]), the “elastic modulus values compared with the methacrylate control (BT)” value is reported as “significantly lower”, the “ultimate strength values compared with the methacrylate control (BT)” value was “significantly lower” and the “work of fracture values compared with the methacrylate control (BT)” value is given as “significantly lower”. For the same compound, in data set [2] (setting [6]), the Flexural elastic modulus is 1.9 GPa, the “Work of Fracture” value is listed as 1.12 (0.42)* kJ/m^2 and the Flexural ultimate strength came out at 42.4 MPa. The “all mechanical properties, overall comparison (with BT control and among formulations)” value in data set [2] (TOSU monomers 20 mol % in SIL-MIX, SIL-MIX alone) was “lowest mechanical property values”. For the same compound, the “ΔH (experimental)/ΔH (calculated)” value in data set [3] (20 mol % in SIL-MIX) was 54%. Further, in data set [3], the “Exotherm Peak Maximum” value amounted to 14 s and the “Net Enthalpy ΔH” value was −78^b J/g. Further, the “Polymerization Stress” value in data set [4] is given as 0.23 (0.06)* N/mm^2.
For `C=CCOCC1OCC2(CO1)COC(COCC=C)OC2` (centres unmarked) [Monomer 3, 3,9-bis(allyloxymethyl)-2,4,8,10-tetraoxaspiro[5.5]undecane], in data set [2] (setting [5]), the “elastic modulus values compared with the methacrylate control (BT)” value is reported as “significantly lower” and the “ultimate strength values compared with the methacrylate control (BT)” value is “significantly lower”. Besides, in data set [2] (setting [6]), the Flexural elastic modulus came out at 2.13 GPa, the “Work of Fracture” value is on record as 7.17 (1.58) kJ/m^2 and the Flexural ultimate strength came out at 87.8 MPa. For the same compound, in data set [3] (20 mol % in SIL-MIX), the “enthalpies above those calculated for addition of an inert diluent” value was 17% and the “ΔH (experimental)/ΔH (calculated)” value is 117%. In addition, in data set [3], the “Exotherm Peak Maximum” value was determined as 15 s and the “Net Enthalpy ΔH” value was −170^b J/g. In addition, the “Polymerization Stress” value in data set [4] is given as 1.20 (0.17)* N/mm^2.
In the case of `C[Si](C)(C)CCC1OCC2(CO1)COC(CC[Si](C)(C)C)OC2` (centres unmarked) [Monomer 4, 3,9-bis(2-trimethylsilylethyl)-2,4,8,10-tetraoxaspiro[5.5]undecane], in data set [2] (setting [5]), the “ultimate strength values compared with the methacrylate control (BT)” value is reported as “significantly lower”. Further, in data set [2] (setting [6]), the Flexural elastic modulus turned out to be 2.36 GPa, the “Work of Fracture” value is listed as 5.63 (1.82) kJ/m^2 and the Flexural ultimate strength came out at 92.2 MPa. For the same compound, in data set [3] (20 mol % in SIL-MIX), the “enthalpies above those calculated for addition of an inert diluent” value is reported as 17% and the “ΔH (experimental)/ΔH (calculated)” value is 117%. Further, in data set [3], the “Exotherm Peak Maximum” value stood at 17 s and the “Net Enthalpy ΔH” value is listed as −170^b J/g. For the same compound, in data set [4] (20 mol % in SIL-MIX), the Photopolymerization stress reduced amounted to 40%. Also, the “Polymerization Stress” value in data set [4] is 6.90 (1.76)* N/mm^2.
`CCC1(CC)COC2(OC1)OCC1(CCC3OC3C1)CO2` (centres unmarked) [Monomer 5, 3,3-diethyl-11,12-epoxy-1,5,7,16-tetraoxadispiro[5.2.5.2]hexadecane] registered a melting point of 67.4 °C. In data set [2] (setting [6]), the Flexural elastic modulus came to 2.58 GPa, the “Work of Fracture” value is on record as 5.33 (1.09) kJ/m^2 and the Flexural ultimate strength was 96 MPa. In addition, the “ΔH (experimental)/ΔH (calculated)” value in data set [3] (20 mol % in SIL-MIX) is reported as 57%. In data set [3], the “Exotherm Peak Maximum” value was determined as 16 s and the “Net Enthalpy ΔH” value is −82^b J/g. Besides, the “Polymerization Stress” value in data set [4] is 0.33 (0.15)* N/mm^2.
As to `C[Si](CCC1CCC2OC2C1)(CCC1CCC2OC2C1)c1ccccc1` (centres unmarked) [PH-SIL, methylbis[2-(7-oxabicyclo[4.1.0]hept-3-yl)ethyl]phenylsilane, reference compound], the “Oxirane Conversion” value in data set [1] (silorane without comonomer) was determined as 31%. In data set [3] (100% silorane), the ΔHexp was -208 J/g.
Regarding `C[Si]1(CCC2CCC3OC3C2)O[Si](C)(CCC2CCC3OC3C2)O[Si](C)(CCC2CCC3OC3C2)O[Si](C)(CCC2CCC3OC3C2)O1` (centres unmarked) [TET-SIL, 2,4,6,8-tetramethyl-2,4,6,8-tetrakis-[2-(7-oxabicyclo[4.1.0]hept-3-yl)ethyl]-1,3,5,7-tetraoxa-2,4,6,8-tetrasilacyclooxtane, reference compound], the “Oxirane Conversion” value in data set [1] (silorane without comonomer) is 13%.
